Values quoted from earlier work as cited in publication PMC12930396, “Positive modulators of N-methyl-D-aspartate receptor: structure–activity relationship study on steroidal C-17 and C-20 oxime ethers” (RSC Advances, 2026).
Structures can show the parent of a compound that is named as a salt.

Columns and labels:
NMDA receptors = conditions: cited from earlier work
GluN1/GluN2B receptors = biological target: T1, GluN1/GluN2B receptors (Rattus norvegicus, UniProt P35439+Q00960); parameters: method as in PMID 29708744; conditions: reference compound PES; cited from earlier work
T1 construct: expressed in transfected cells; host or cells: HEK293 cells (ATCC No. CRL-1573)
T1 sequence (Q00960 27-1482, other chains not shown): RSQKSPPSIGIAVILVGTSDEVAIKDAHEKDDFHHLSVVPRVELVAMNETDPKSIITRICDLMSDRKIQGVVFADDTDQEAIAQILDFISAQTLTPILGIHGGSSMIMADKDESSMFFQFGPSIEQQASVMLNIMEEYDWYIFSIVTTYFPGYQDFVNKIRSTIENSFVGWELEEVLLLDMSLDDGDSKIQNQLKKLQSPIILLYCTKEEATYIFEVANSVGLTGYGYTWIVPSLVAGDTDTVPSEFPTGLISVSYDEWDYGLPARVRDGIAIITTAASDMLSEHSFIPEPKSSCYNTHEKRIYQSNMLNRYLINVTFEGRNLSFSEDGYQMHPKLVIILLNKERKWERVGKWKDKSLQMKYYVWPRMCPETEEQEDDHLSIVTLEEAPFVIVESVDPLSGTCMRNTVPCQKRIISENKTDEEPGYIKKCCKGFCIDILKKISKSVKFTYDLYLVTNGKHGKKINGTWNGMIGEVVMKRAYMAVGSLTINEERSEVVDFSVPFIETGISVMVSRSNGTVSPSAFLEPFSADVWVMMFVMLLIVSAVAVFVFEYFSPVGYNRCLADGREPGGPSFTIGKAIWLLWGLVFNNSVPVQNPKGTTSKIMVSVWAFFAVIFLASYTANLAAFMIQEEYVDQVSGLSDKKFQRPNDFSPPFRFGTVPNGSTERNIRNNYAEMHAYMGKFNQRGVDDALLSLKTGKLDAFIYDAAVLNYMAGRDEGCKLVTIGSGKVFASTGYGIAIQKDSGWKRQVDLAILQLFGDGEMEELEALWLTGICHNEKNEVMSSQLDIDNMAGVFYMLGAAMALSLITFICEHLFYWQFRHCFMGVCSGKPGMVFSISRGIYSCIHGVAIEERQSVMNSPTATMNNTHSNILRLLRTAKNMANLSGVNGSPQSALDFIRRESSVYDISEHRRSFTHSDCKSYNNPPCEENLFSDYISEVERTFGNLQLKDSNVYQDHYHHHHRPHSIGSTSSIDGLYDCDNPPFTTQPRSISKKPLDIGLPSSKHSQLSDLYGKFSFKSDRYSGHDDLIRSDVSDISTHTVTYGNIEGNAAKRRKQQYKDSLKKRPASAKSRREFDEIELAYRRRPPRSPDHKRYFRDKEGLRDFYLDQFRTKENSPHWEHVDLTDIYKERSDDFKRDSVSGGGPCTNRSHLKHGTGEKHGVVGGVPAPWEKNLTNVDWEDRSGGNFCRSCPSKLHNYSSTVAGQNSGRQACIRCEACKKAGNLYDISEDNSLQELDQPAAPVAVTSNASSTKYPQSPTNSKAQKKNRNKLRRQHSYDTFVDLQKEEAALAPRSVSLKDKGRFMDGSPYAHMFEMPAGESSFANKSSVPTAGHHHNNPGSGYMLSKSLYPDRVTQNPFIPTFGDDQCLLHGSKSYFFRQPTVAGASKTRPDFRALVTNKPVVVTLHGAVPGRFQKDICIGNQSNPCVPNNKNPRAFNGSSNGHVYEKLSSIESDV

Molecule: C[C@]12CC[C@H](O)CC1=CC[C@@H]1[C@@H]2CC[C@]2(C)C(=O)CC[C@@H]12 [dehydroepiandrosterone, 3β-hydroxy-androst-5-en-17-one]
- Activity at NMDARs (NMDA receptors; C-17 ketone steroids): inactive

Molecule: CC(=O)[C@H]1CC[C@H]2[C@@H]3CC[C@@H]4C[C@H](OS(=O)(=O)O)CC[C@]4(C)[C@H]3CC[C@]12C [PAS, 20-oxo-5β-pregnan-3α-yl sulfate]
- IC50 (NMDA receptors; in Fig. 1, read-out: IC50, negative allosteric modulation of NMDA receptors): 24.6 µM

Molecule: 20-oxo-pregn-5-en-3β-yl sulfate [PES]
- E max ± SEM (GluN1/GluN2B receptors): 116 ± 10%
- h ± SEM (apparent Hill coefficient) (GluN1/GluN2B receptors): 1.5 ± 0.1
